Data reported in paper PMC9967653, “Anticancer Activities of Novel Nicotinamide Phosphoribosyltransferase Inhibitors in Hematological Malignancies” (Molecules, 2023).
Like-named read-outs stand apart in the source and are kept apart here.

Legend:
[1] = test system: ML2 cells (acute myeloid leukemia); assay: Cell death after 96 h of treatment (ANXN/7AAD flow cytometry), ML2; assay type: cell-based; settings: Homo sapiens, ML-2; ML2, 96 h
Method: (§1) Four hematological cell lines (ML2—acute myeloid leukemia; Jurkat—acute lymphoblastic leukemia; Namalwa—Burkitt lymphoma; and RPMI8226—multiple myeloma) were purchased from DSMZ (German Collection of Microorganisms and Cell Cultures, Braunschweig, Germany) or ATCC.
(§2) All cells were cultured in RPMI medium (Invitrogen AG, 61870-01) supplemented with 10% heat inactivated fetal calf serum (Amimed, 2-01F30-I) and 1% penicillin/streptomycin at 37 °C (Amimed, 4-01F00-H) in a humidified atmosphere of 95% air and 5% CO2.
(§3) To determine the cell death induced by NAMPT inhibitors, malignant cells were stained with ANNEXIN-V (ANXN, eBioscience, BMS306FI/300) and 7-aminoactinomycin D (7AAD, Immunotech, A07704) as described by the manufacturer and analyzed using flow cytometry. Dead cells were identified as ANXN+7AAD+ /7AAD+ and early apoptotic cells as ANXN+ 7AAD-. Specific cell death induced by inhibitors was calculated using the following formula: percent of cell death induced by compound = [(S – C) / (100 – C)] × 100; where S = treated sample cell death and C = untreated sample cell death.

[2] = test system: RPMI8226 cells (multiple myeloma); assay: Cell death after 96 h of treatment (ANXN/7AAD flow cytometry), RPMI8226; assay type: cell-based; settings: Homo sapiens, RPMI-8226; RPMI8226, 96 h
Method: as §1, §2, §3

[3] = Pharmacokinetics in mice after intraperitoneal administration; assay type: in vivo; settings: for Cmax / Tmax / CL/F / half-life / AUC(0-t) / Vd/F: female SCID mice, intraperitoneal, 20 mg/kg (Figure S1); for Cmax / Tmax / half-life / AUC(0-t) / Vd/F: plasma; for CL/F: dose divided by AUC0-24; for Vd/F: (CL/F)/λz, read-out: Vz/F
Method: Concentration measurements in mice EDTA plasma samples were performed using a Vanquish Flex ultra-high-performance liquid chromatography (UHPLC) system attached to a TSQ Quantis^TM triple quadrupole mass spectrometer (MS) (ThermoFisher Scientific, Waltham, MA, USA). The chromatographic column was a Luna Omega Polar C18 3 µm, 50 × 2.1 mm from Phenomenex (Torrance, CA, USA), kept at 40 °C in a UHPLC oven. The mobile phase was made of water and acetonitrile (ACN) with 0.1% formic acid in each. The gradient program ranged from 20 to 95% ACN in 1.5 min and the total method duration (including equilibration for the next injection) was 3 min. The flow rate and injection volume were 0.5 mL/min and 5 µL, respectively.
For the sample preparation, 90 µL of ACN was added to an aliquot of 30 µL of mouse plasma for protein precipitation. The mixture was then centrifugated at 14,000 rpm and the supernatant was directly injected in the UHPLC–MS.
Drug plasma concentrations were measured at selected time points after intraperitoneal administration in mice (sacrificed mice in triplicates for each time point). Samples were analyzed on two separate occasions for each sampling. Then, pharmacokinetic (PK) parameters were computed using standard non-compartmental calculations for geometric means of the measured concentrations using the “PKNCA R Package” (R version 4.0.2, R Development Core Team, http://www.r-project.org/ access date: 4 February 2023).
The area under the curve (AUC0-24) was calculated for the four drugs using the trapezoidal and log-trapezoidal rule when appropriate. The terminal rate constant (λz) was approximated using the slope of the terminal phase, while the half-life (T1/2) was calculated as ln(2)/λz, the apparent clearance (CL/F) as the dose divided by AUC0-24 and the apparent volume of distribution (Vz/F) as (CL/F)/λz.

[4] = test system: Jurkat cells (acute lymphoblastic leukemia); assay: Cell death after 96 h of treatment (ANXN/7AAD flow cytometry), Jurkat; assay type: cell-based; settings: Homo sapiens
Method: as §1, §2, §3

[5] = test system: Namalwa cells (Burkitt lymphoma); assay: Cell death after 96 h of treatment (ANXN/7AAD flow cytometry), Namalwa; assay type: cell-based; settings: Homo sapiens
Method: as §1, §2, §3

[6] = test system: Namalwa tumors (human Burkitt lymphoma cell line); assay: Mouse xenograft model of human Burkitt lymphoma; assay type: in vivo; settings: for Tumor growth: 10 mg/kg I.P. twice a day for 4 days, weekly over 3 weeks, JJ08: 5 days after administration
Method: The new NAMPT inhibitors (JJ08, FEI191 and FEI199 (in comparison with lead compound, FK866 (APO866))) were evaluated in vivo in a mouse xenograft model of human Burkitt lymphoma. […] non-leaky C.B.-17 SCID mice (8 to 10 weeks old; Iffa Credo, L’Arbresle, France) were housed in micro-isolator cages in a specific pathogen-free room in the animal facility at the University Hospital of Lausanne. Firstly, the mice spent one week alone to acclimatize to their new environment. All animals were handled according to the institutional regulations and with the prior approval of the animal ethic committee of the University of Lausanne. Manipulations were performed in sterile conditions under a laminar flow hood. Firstly, Namalwa cells (1 × 10^7) were injected subcutaneously into the mouse flank side. Once the tumors became palpable and reached a size between 100 and 150 mm^3, mice (n = five/ group) were randomized into control and treated groups. The drugs were administered intraperitoneally (10 mg/kg body weight) in 200 µL 0.9% saline twice a day for 4 days, repeated weekly over 3 weeks. The control group was treated only with 200 µL 0.9% saline. Every day, the animals were monitored for any signs of illness, and in cases where the tumor size reached a diameter of 15 mm, they were sacrificed immediately.
Tumor size (A) and survival rate (B) of mice xenografted with Namalwa cells treated or untreated with NAMPT inhibitors were monitored for 21 days. Twenty-five 6-to-8-week-old C.B.-17 SCID mice were transplanted subcutaneously with Namalwa cells (10^7). Once tumors reached a volume of approximately 100–150 mm^3, at day 14, mice were randomized into five groups of animals (n = 5) with similar body weight. Control groups received vehicle (pink line) and JJ08 (10 mg/kg; light blue line), FEI191 (10 mg/kg; red line), FEI199 (10 mg/kg; green line) or APO866 (10 mg/kg; blue line) were administered as described in the Materials and Methods section. […] Data were analyzed by the Kaplan–Meier survival analysis with log-rank test.

purified NAMPT = target: T1, purified NAMPT (Homo sapiens, UniProt P43490); assay: NAMPT enzymatic activity assay (colorimetric kit); assay type: biochemical; settings: 1 µM final concentration
T1 construct: purchased Abcam ab221819
T1 sequence (P43490 whole entry): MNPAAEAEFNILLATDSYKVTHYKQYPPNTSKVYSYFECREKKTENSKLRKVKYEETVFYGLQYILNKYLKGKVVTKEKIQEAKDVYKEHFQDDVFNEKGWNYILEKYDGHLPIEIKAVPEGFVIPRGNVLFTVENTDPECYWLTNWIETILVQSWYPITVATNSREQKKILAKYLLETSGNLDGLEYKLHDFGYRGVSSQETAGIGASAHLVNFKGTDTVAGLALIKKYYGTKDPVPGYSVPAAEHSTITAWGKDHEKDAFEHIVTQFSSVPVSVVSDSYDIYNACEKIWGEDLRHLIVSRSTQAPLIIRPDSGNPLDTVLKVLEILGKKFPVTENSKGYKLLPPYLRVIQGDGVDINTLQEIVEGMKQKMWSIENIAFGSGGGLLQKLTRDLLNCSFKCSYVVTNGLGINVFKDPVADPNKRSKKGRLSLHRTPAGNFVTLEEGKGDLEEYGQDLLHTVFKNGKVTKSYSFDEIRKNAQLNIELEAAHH
Method: The ability of FK866 (APO866) analogues to inhibit NAMPT activity was assessed with an NAMPT Activity Assay Kit (Colorimetric) (Abcam, ab221819, Cambridge, UK) according to the manufacturer’s instructions. Briefly, NAMPT inhibitors were dissolved in DMSO to a final concentration of 1 µM and distributed in a 96-well plate in duplicate. Then, a reaction mix containing assay buffer, ATP, NMNAT1, NAM, PRPP and ddH2O was added and the plate was incubated at 30 °C for 60 min. After, to measure the generated NAD^+, a mix of WST-1, ADH, diaphorase and ethanol was added to the wells. The absorbance was measured in kinetic mode at 450 nm on a microplate reader for 45 min at 30 °C.
Figure 2 New compounds with a potent NAMPT inhibitory activity. Compounds were added in 1 µM final concentration to purified NAMPT and incubated with co-substrates, resulting in a reduction of tetrazolium salt (WST-1) to colorful formazan. The amount of formed dye is directly proportional to the enzyme activity. The absorbance of the dye was detected at OD 450 nm.

[7] = test system: ML2, Jurkat, Namalwa and RPMI8226 cells; assay: Cell death in the four hematological cancer cell lines, statements for all lines together; assay type: cell-based, human; settings: 96 h
Method: as §1, §2, §3
A dose-dependent analysis of cell death induced by NAMPT inhibitors on ML2 (A), Jurkat (B), Namalwa (C) and RPMI8226 (D) cell lines. The cells were treated with various concentrations of NAMPT inhibitors for 96 h and cell death was assessed by flow cytometry using ANXN and 7AAD staining. […]

| SMILES | IC50 [1] [nM] | IC50 [2] [nM] | Cmax [3] | Tmax [3] [min] | CL/F [3] [mL/h] | half-life ([3]; mouse, ip) [min] | AUC(0-t) ([3]; mouse, ip, read-out: AUC0-24) [ng·h/mL] | Vd/F ([3]; mouse, ip) [L] | IC50 [4] [nM] | IC50 [5] [nM] | Tumor growth [6] | Inhibition of NAMPT activity (purified NAMPT) | other results |
| --- | --- | --- | --- | --- | --- | --- | --- | --- | --- | --- | --- | --- | --- |
| O=C(/C=C/c1cccnc1)NCCCCC1CCN(C(=O)c2ccccc2)CC1 [APO866, reference compound] | 0.41 | 0.23 | 28,028 ng/mL | 10.2 | 24 | 224 | 16400 | 0.131 | 0.47 | 0.58 | – | – | – |
| N#CN=C(NC/C=C/CCC1CCN(C(=O)c2ccco2)CC1)Nc1ccncc1 [FEI199] | 0.21 | 0.12 | 12,031 ng/mL | 10.2 | 108 | – | – | – | 0.25 | 0.29 | did not stop tumor progression, but significantly delayed it | full inhibition | IC50 ([7]; Homo sapiens, all four cell lines, read-out: IC50 in all malignancies): < 0.3 nM; Concentration inducing maximal cell killing ([7]; all tested cell lines): ≤ 0.5 nM; Clearance, fold higher than APO866 or JJ08 ([3]; mice, I.P.): more than 4 fold; AUC(0-t) ([3]; mouse, ip, AUC calculated from PK measurements up to 8 h, read-out: AUC0-24 (*)): 3720 ng·h/mL |
| O=C(/C=C/c1cccnc1)NCCCCC1CCN(C(=O)c2ccco2)CC1 [JJ08, (E)-N-(4-(1-(furan-2-carbonyl)piperidin-4-yl)butyl)-3-(pyridin-3-yl)acrylamide] | 0.51 | 0.3 | – | – | 53 | 395 | 7560 | 0.502 | 0.85 | 0.58 | completely eradicated tumor growth | full inhibition | Signs of toxicity (loss of body weight, lethargy, rough coat, premature death) ([6]; xenografted mice, 10 mg/kg I.P.): well tolerated; AUC0-24, fold lower than that of APO866 ([3]; mice, I.P.): approximately 2 fold; CL/F, fold higher compared to APO866 ([3]; mice, I.P.): 2 fold; Cmax ([3]; mouse, ip, read-out: Cmax): 24300 ng/mL; Tmax ([3]; mouse, ip, read-out: Tmax): 10.2 min |
